From patent publication US9932327B2, “Rohitukine analogs as cyclin-dependent kinase inhibitors and a process for the preparation thereof” (COUNCIL OF SCIENTIFIC AND INDUSTRIAL RESEARCH, priority 2013, dated 2018)
Converted amounts (≈) assume the structure as drawn. Like-named read-outs stand apart in the source and are kept apart here. Blank lines part the entries; values can stand above or below the compound they belong to.

What was measured:
CDK-2/cyclin A = CDK-2/cyclin A (Homo sapiens (Human), UniProt P24941); assay: Inhibition of CDK-2/cyclin A; assay type: biochemical
CDK-9/Cyclin T1 = CDK-9/Cyclin T1 (Homo sapiens (Human), UniProt P50750); assay: Inhibition of CDK-9/cyclin T1; settings: IC50 (nM) CDK-9/T1
HL-60 (Leukemia) = assay: Cytotoxicity, MTT assay, HL-60; assay type: cell-based; settings: Homo sapiens; for inhibition at 10 µM: read-out: Cell Growth Inhibition (%)
Experimental: (§1) Compounds proposed in the present invention were evaluated for their cytotoxic effect against panel of six cancer cell line viz. HL-60 (Leukemia), PC-3 (Prostate), A-375 (Melanoma), MIAPaCa-2 (pancreatic), MCF-7 (Breast) and Caco-2 (Colon) using MTT assay. In each well of a 96-well plate, 3×10^3 cells were grown in 100 μL of medium. After 24 h, each test molecules were added to achieve a final concentration of 10 to 0.01 μmol/L, respectively. After 48 h of treatment, 20 μL of 2.5 mg/mL MTT (Organics Research, Inc.) solution in phosphate buffer saline was added to each well. After 48 h, supernatant was removed and formazan crystals were dissolved in 200 μL of DMSO. Absorbance was then measured at 570 nm using an absorbance plate reader (Bio-Rad Microplate Reader). Data are expressed as the percentage of viable cells in treated relative to non-treated conditions.

PC-3 (Prostate) = assay: Cytotoxicity, MTT assay, PC-3; assay type: cell-based; settings: for inhibition at 10 µM: read-out: Cell Growth Inhibition (%)
Experimental: as §1

A-375 (Melanoma) = assay: Cytotoxicity, MTT assay, A-375; assay type: cell-based; settings: Homo sapiens; for inhibition at 10 µM: read-out: Cell Growth Inhibition (%)
Experimental: as §1

MCF-7 (Breast) = assay: Cytotoxicity, MTT assay, MCF-7; assay type: cell-based; settings: Homo sapiens; for IC50: MCF7; for inhibition at 10 µM: MCF7, 10 μM, read-out: Cell Growth Inhibition (%)
Experimental: as §1

Caco-2 (Colon) = assay: Cytotoxicity, MTT assay, Caco-2; assay type: cell-based; settings: Homo sapiens; for inhibition at 10 µM: read-out: Cell Growth Inhibition (%)
Experimental: as §1

[1] = test system: Ehrlich solid tumor (EAC cells); assay: In vivo anticancer activity in Ehrlich solid tumor mice model; parameters: species or system Swiss mice
Experimental: Ehrlich ascites carcinoma (EAC) cells were collected from the peritoneal cavity of the swiss mice harbouring 8-10 days old ascitic tumor. 1×10^7 EAC cells were injected intramuscularly in right thigh of 31 Swiss male mice selected for the experiment on day 0. The next day, animals were randomized and divided into four groups. Three treatment groups contained 7 animals each and one control group contained 10 animals. Treatment was given as follows:
Group I: Compound 33 (50 mg/kg i/p) from day 1-9.
Group II: Compound 33 (70 mg/kg i/p) from day 1-9.
The third treatment group was treated with 5-fluorouracil (22 mg/kg, i.p) from day 1-9 and it served as positive control. The control group was similarly administered normal saline (0.2 ml, i.p.) from day 1-9. On day 9 & 13, tumor bearing thigh of each animal was shaved and longest and shortest diameters of the tumor were measured with the help of vernier caliper. Tumor weight of each animal was calculated using the following formula.
The percent tumor growth inhibition was calculated on day 13 by comparing the average values of treated groups with that of control group. Tumor growth in saline treated control animals was taken to be 100%.

[2] = Thermodynamic equilibrium solubility; assay type: physicochemical; settings: 25 °C, thermodynamic from solid
Experimental: The compounds were first dissolved in methanol to prepare stock solutions (100 and 1000 μg/mL). Different concentrations of stock solutions were pipetted into the 96-well plates and the solvent was evaporated to ensure that solid drug was present in the beginning of the experiment. […] The plates were kept overnight for equilibration of drug in medium. Later, the plates were centrifuged at 3000 rpm for 15 min (Jouan centrifuge BR4i). Supernatant (50 μl) was pipetted into UV 96-well plates (Corning® 96 Well Clear Flat Bottom UV-Transparent Microplate) for analyses with plate reader (SpectraMax Plus384) at λmax of 350 nm. The analyses were performed in triplicate for each compound. The solubility curve of concentration (μg/mL) vs absorbance was plotted to find out saturation point and the corresponding concentration was noted (Heikkilä, T. et al. Int. J. Pharm. 2011, 405, 132).

MIAPaCa-2 (pancreatic) = assay: Cytotoxicity, MTT assay, MIAPaCa-2; assay type: cell-based; settings: Homo sapiens, MIA PaCa-2, read-out: Cell Growth Inhibition (%)
Experimental: as §1

CDK1/cyclin B = settings: Gray, N. et al. Curr. Med. Chem. 1999, 6, 859; cited from earlier work
[3] = water, 25±1° C., read-out: Solubility in μg/mL, Water
[4] = phosphate buffer saline (PBS), aqueous buffer, read-out: Solubility in μg/mL, PBS
[5] = simulated gastric fluid (SGF), simulated gastric fluid, read-out: Solubility in μg/mL, SGF
[6] = simulated intestinal fluid (SIF), fassgf or other biorelevant, read-out: Solubility in μg/mL, SIF
[7] = 22 mg/kg i/p day 1-9, positive control

Sequence of CDK-9/Cyclin T1 (P50750 whole entry): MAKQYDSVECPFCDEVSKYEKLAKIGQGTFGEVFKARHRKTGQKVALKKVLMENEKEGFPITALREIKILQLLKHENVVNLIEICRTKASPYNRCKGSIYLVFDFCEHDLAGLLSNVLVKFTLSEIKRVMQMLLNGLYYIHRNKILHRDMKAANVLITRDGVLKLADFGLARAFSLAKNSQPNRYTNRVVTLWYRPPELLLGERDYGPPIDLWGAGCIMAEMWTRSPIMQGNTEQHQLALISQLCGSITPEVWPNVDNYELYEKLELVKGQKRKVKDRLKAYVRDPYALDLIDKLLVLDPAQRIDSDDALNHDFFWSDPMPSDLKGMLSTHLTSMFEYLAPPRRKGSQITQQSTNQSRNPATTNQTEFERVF
Sequence of CDK-9/Cyclin T1 (O60563 whole entry partner): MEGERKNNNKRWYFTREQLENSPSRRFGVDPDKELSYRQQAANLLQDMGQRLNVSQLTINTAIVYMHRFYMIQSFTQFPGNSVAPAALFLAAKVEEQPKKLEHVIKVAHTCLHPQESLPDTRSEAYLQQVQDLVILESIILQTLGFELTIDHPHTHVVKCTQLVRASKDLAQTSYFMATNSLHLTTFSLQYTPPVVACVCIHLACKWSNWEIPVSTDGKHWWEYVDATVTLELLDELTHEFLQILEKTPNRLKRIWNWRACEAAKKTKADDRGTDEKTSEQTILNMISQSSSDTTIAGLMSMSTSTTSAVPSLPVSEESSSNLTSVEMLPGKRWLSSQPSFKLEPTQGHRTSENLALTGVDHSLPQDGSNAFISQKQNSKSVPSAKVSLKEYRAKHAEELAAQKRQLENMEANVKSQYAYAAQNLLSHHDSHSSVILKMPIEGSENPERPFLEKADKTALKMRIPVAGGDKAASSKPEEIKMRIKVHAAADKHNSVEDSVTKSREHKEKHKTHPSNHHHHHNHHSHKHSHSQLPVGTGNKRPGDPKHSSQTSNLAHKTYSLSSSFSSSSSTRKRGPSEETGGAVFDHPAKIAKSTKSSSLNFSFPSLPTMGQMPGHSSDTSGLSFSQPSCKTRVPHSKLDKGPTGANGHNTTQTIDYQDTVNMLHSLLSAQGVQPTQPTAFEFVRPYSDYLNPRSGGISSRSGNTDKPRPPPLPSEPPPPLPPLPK

- IC50 (CDK-2/cyclin A): 466 nM
- IC50 (CDK-9/Cyclin T1): 30 nM
SMILES: CN1CCC(c2c(O)cc(O)c3c(=O)cc(/C=C/c4cccc(F)c4)oc23)C(O)C1 (stereo not drawn) [Compound 35, 2-(3-fluorostyryl)-5,7-dihydroxy-8-(3-hydroxy-1-methylpiperidin-4-yl)-4H-chromen-4-one]

SMILES: CN1CCC(c2c(O)cc(O)c3c(=O)cc(/C=C/c4c(Cl)cccc4Cl)oc23)C(O)C1 (stereo not drawn) [Compound 33, 2-(2,6-dichlorostyryl)-5,7-dihydroxy-8-(3-hydroxy-1-methylpiperidin-4-yl)-4H-chromen-4-one]
- IC50 (HL-60 (Leukemia)): 900 nM
- IC50 (PC-3 (Prostate)): 41 µM
- IC50 (A-375 (Melanoma)): 8 µM
- IC50 (MCF-7 (Breast)): 4 µM
- IC50 (Caco-2 (Colon)): 7 µM
- IC50 (CDK-2/cyclin A): 16 nM
- Day 13 % Tumor Growth Inhibition ([1]; 50 mg/kg i/p day 1-9): 33.11%
- Day 13 Av. Tumor weights ([1]; 50 mg/kg i/p day 1-9): 989.12 mg
- Mortality ([1]; 50 mg/kg i/p day 1-9): 0/7
- Day 13 % Tumor Growth Inhibition ([1]; 70 mg/kg i/p day 1-9): 37.65%
- Day 13 Av. Tumor weights ([1]; 70 mg/kg i/p day 1-9): 922.0 mg
- Mortality ([1]; 70 mg/kg i/p day 1-9): 0/7
- solubility [2, 3]: 5 µg/mL (≈ 10.8 µM)
- solubility [2, 4]: 5 µg/mL (≈ 10.8 µM)
- solubility [2, 5]: 40 µg/mL (≈ 86.5 µM)
- solubility [2, 6]: 20 µg/mL (≈ 43.3 µM)
- IC50 (CDK-9/Cyclin T1): 2 nM

- solubility [2, 3]: > 1500 µg/mL
- solubility [2, 4]: 40 µg/mL
- solubility [2, 5]: 80 µg/mL
- solubility [2, 6]: 40 µg/mL
SMILES: CN1CCC(c2c(O)cc(O)c3c(=O)cc(/C=C/c4c(F)c(F)c(F)c(F)c4F)oc23)C(O)C1.Cl (stereo not drawn) [Hydrochloride salt of 34, 2-(2,3,4,5,6-pentafluorostyryl)-5,7-dihydroxy-8-(3-hydroxy-1-methylpiperidin-4-yl)-4H-chromen-4-one hydrochloride]

SMILES: O=c1[nH]cc(F)c(=O)[nH]1 [Compound 5-FU, 5-fluorouracil, reference compound]
- Day 13 % Tumor Growth Inhibition [1, 7]: 58.50%
- Day 13 Av. Tumor weights [1, 7]: 613.71 mg
- Mortality [1, 7]: 0/7

SMILES: CN1CCC(c2c(O)cc(O)c3c(=O)cc(/C=C/c4c(Cl)cccc4Cl)oc23)C(O)C1.Cl (stereo not drawn) [Hydrochloride salt of 33, 2-(2,6-dichlorostyryl)-5,7-dihydroxy-8-(3-hydroxy-1-methylpiperidin-4-yl)-4H-chromen-4-one hydrochloride]
- solubility [2, 3]: > 1500 µg/mL
- solubility [2, 4]: 40 µg/mL
- solubility [2, 5]: 40 µg/mL
- solubility [2, 6]: 10 µg/mL

- IC50 (CDK-2/cyclin A): > 10000 nM
- IC50 (CDK-9/Cyclin T1): 550 nM
SMILES: Cc1cc(=O)c2c(O)cc(O)c(C3CCN(C)CC3O)c2o1 (stereo not drawn) [Compound 1, 5,7-dihydroxy-8-(3-hydroxy-1-methylpiperidin-4-yl)-2-methyl-4H-chromen-4-one, reference compound]
- IC50 (HL-60 (Leukemia)): 6000 nM
- inhibition at 10 µM (HL-60 (Leukemia)): 83.3%
- inhibition at 10 µM (PC-3 (Prostate)): 32.9%
- inhibition at 10 µM (A-375 (Melanoma)): 41.2%
- inhibition at 10 µM (MIAPaCa-2 (pancreatic)): 1.46%
- inhibition at 10 µM (MCF-7 (Breast)): 15.4%
- inhibition at 10 µM (Caco-2 (Colon)): 11.9%

- IC50 (CDK-2/cyclin A): 608 nM
- solubility [2, 3]: 5 µg/mL (≈ 10.3 µM)
- solubility [2, 4]: 10 µg/mL (≈ 20.7 µM)
- solubility [2, 5]: 80 µg/mL (≈ 165 µM)
- solubility [2, 6]: 20 µg/mL (≈ 41.4 µM)
- IC50 (CDK-9/Cyclin T1): 12 nM
SMILES: CN1CCC(c2c(O)cc(O)c3c(=O)cc(/C=C/c4c(F)c(F)c(F)c(F)c4F)oc23)C(O)C1 (stereo not drawn) [Compound 34, 2-(2,3,4,5,6-pentafluorostyryl)-5,7-dihydroxy-8-(3-hydroxy-1-methylpiperidin-4-yl)-4H-chromen-4-one]
- IC50 (HL-60 (Leukemia)): 3000 nM
- IC50 (PC-3 (Prostate)): 30 µM
- IC50 (A-375 (Melanoma)): 8 µM
- IC50 (MCF-7 (Breast)): 4 µM
- IC50 (Caco-2 (Colon)): 7 µM

SMILES: Cc1oc2c(C3CCN(C)CC3O)c(O)cc(O)c2c(=O)c1C(O)c1ccccc1Br (stereo not drawn) [Compound 15, 3-((2-Bromophenyl)(hydroxy)methyl)-5,7-dihydroxy-8-(3-hydroxy-1-methylpiperidin-4-yl)-2-methyl-4H-chromen-4-one]
- inhibition at 10 µM (HL-60 (Leukemia)): 52%
- inhibition at 10 µM (PC-3 (Prostate)): 44.5%
- inhibition at 10 µM (A-375 (Melanoma)): 22.4%
- inhibition at 10 µM (MIAPaCa-2 (pancreatic)): 10.1%
- inhibition at 10 µM (MCF-7 (Breast)): 20.6%
- inhibition at 10 µM (Caco-2 (Colon)): 6.62%

SMILES: CN(C)c1ncnc2nc[nH]c12 [dimethylaminopurine]
- IC50 (CDK1/cyclin B): 120 µM
